# According to BindingDB's records for doi:10.1111/j.1747-0285.2007.00520.x (Pfizer, 2007):
# Where “and” joins values, the source holds several entries; their conditions need not be identical. Equal entries are not always repeated.
# Target: Coagulation factor X (Homo sapiens, UniProt P00742)
# Assay: Inhibition Assay
# Sequence of Coagulation factor X (P00742 41-179 limits assumed): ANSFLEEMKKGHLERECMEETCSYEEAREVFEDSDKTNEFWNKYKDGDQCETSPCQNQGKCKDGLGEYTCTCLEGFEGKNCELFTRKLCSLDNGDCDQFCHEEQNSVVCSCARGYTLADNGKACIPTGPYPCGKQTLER
# Sequence of Coagulation factor X (P00742 235-488 limits assumed): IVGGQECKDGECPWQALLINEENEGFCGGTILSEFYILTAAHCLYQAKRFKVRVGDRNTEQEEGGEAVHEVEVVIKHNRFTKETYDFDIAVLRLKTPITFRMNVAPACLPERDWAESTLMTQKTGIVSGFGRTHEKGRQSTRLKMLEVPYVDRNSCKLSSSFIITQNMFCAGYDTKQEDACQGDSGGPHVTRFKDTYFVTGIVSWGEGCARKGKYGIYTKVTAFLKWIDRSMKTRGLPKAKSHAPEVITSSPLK
row,SMILES,IC50
1,"NS(=O)(=O)c1ccccc1-c1ccc(NC(=O)C2CCCN2C(=O)Nc2ccc(C(F)(F)F)cc2)c(F)c1 (stereo not drawn) [P1 Phenyl Ring, 31]",> 4000 nM
2,"NS(=O)(=O)c1ccccc1-c1ccc(NC(=O)[C@H]2CC(O)CN2C(=O)Nc2ccc(Cl)cc2)c(F)c1 (stereo partly drawn) [4-Substituted Pyrrolidine Ring, 14]",0.75 nM
3,"Cc1ccc(NC(=O)N2CCCC2C(=O)Nc2ccc(-c3ccccc3S(N)(=O)=O)cc2F)cc1 (stereo not drawn) [P1 Phenyl Ring, 24]",389 nM
4,"NS(=O)(=O)c1ccccc1-c1ccc(NC(=O)C2CCCN2C(=O)Nc2ccccc2)c(F)c1 (stereo not drawn) [P1 Phenyl Ring, 27]",951 nM
5,"NS(=O)(=O)c1ccccc1-c1ccc(NC(=O)C2CCCN2C(=O)Nc2ccccc2F)c(F)c1 (stereo not drawn) [P1 Phenyl Ring, 33]",> 4000 nM
6,"NS(=O)(=O)c1ccccc1-c1ccc(NC(=O)C2CCCN2C(=O)Nc2ccc(Br)cc2)c(F)c1 (stereo not drawn) [P1 Phenyl Ring, 22]",33 nM
7,"COc1cccc(NC(=O)N2CCCC2C(=O)Nc2ccc(-c3ccccc3S(N)(=O)=O)cc2F)c1 (stereo not drawn) [P1 Phenyl Ring, 32]",> 4000 nM
8,"COC1C[C@H](C(=O)Nc2ccc(-c3ccccc3S(C)(=O)=O)cc2F)N(C(=O)Nc2ccc(Cl)cn2)C1 (stereo partly drawn) [4-Substituted Pyrrolidine Ring, 35]",1 nM
9,"CCc1ccc(NC(=O)N2CCCC2C(=O)Nc2ccc(-c3ccccc3S(N)(=O)=O)cc2F)cc1 (stereo not drawn) [P1 Phenyl Ring, 30]",> 4000 nM
10,"CS(=O)(=O)c1ccccc1-c1ccc(NC(=O)[C@H]2CC(O)CN2C(=O)Nc2ccc(F)cc2)c(F)c1 (stereo partly drawn) [4-Substituted Pyrrolidine Ring, 36]",7.6 nM
11,"COc1ccc(NC(=O)N2CCCC2C(=O)Nc2ccc(-c3ccccc3S(N)(=O)=O)cc2F)cc1 (stereo not drawn) [P1 Phenyl Ring, 26]",873 nM
12,"CS(=O)(=O)c1ccccc1-c1ccc(NC(=O)[C@H]2CC(F)(F)CN2C(=O)Nc2ccc(Cl)cc2)c(F)c1 [4-Substituted Pyrrolidine Ring, 21]",5 nM
13,"Cc1ccc(NC(=O)N2CCCC2C(=O)Nc2ccc(-c3ccccc3S(N)(=O)=O)cc2F)cc1F (stereo not drawn) [P1 Phenyl Ring, 25]",516 nM
14,"NS(=O)(=O)c1ccccc1-c1ccc(NC(=O)C2CCCN2C(=O)Nc2cccc(Cl)c2)c(F)c1 (stereo not drawn) [P1 Phenyl Ring, 28]",> 4000 nM
15,"CS(=O)(=O)c1ccccc1-c1ccc(NC(=O)[C@H]2CC(O)CN2C(=O)Nc2ccc(Cl)cn2)c(F)c1 (stereo partly drawn) [4-Substituted Pyrrolidine Ring, 34]",4.3 nM
16,"CS(=O)(=O)c1ccccc1-c1ccc(NC(=O)[C@H]2CC(F)CN2C(=O)Nc2ccc(Cl)cc2)c(F)c1 (stereo partly drawn) [4-Substituted Pyrrolidine Ring, 17]",7 nM and 1.2 nM
17,"CS(=O)(=O)c1ccccc1-c1ccc(NC(=O)[C@H]2CC(=O)CN2C(=O)Nc2ccc(Cl)cc2)c(F)c1 [4-Substituted Pyrrolidine Ring, 20]",2.9 nM
18,"NS(=O)(=O)c1ccccc1-c1ccc(NC(=O)C2CCCN2C(=O)Nc2ccc(Cl)c(Cl)c2)c(F)c1 (stereo not drawn) [P1 Phenyl Ring, 29]",> 4000 nM
